From ChEMBL document CHEMBL1133795, “Antagonists of the human CCR5 receptor as anti-HIV-1 agents. part 1: discovery and initial structure-activity relationships for 1 -amino-2-phenyl-4-(piperidin-1-yl)butanes” (Bioorg Med Chem Lett, 2001) come the findings set out here.

A word on the IC50: it is the concentration that inhibits the measured activity by half. Low values mean higher potency, high ones lower potency. In general, inhibition refers to the relative decrease from the control value, in per cent.

The target in the first assay is T1, C-C chemokine receptor type 5 (Homo sapiens, UniProt P51681). Description: Binding affinity towards human CCR5 receptor in Chinese hamster ovary (CHO) cells using [125I]-MIP-1 alpha as radioligand. It counts as cell-based.
Target sequence in this assay (P51681 whole entry): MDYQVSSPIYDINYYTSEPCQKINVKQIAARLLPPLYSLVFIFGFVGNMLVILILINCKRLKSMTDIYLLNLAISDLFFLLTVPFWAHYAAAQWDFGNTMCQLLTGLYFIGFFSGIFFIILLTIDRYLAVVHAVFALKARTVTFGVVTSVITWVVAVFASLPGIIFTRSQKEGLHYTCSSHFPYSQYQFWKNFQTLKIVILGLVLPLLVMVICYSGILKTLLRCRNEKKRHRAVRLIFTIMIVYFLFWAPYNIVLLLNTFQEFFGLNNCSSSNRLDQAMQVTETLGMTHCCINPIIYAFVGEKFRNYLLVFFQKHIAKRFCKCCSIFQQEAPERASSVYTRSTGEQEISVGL
`CN(C[C@@H](CCN1CCC2(CC1)C[S+]([O-])c1ccccc12)c1ccc(Cl)c(Cl)c1)C(=O)Oc1ccccc1` (stereo partly drawn) came in with an IC50 of 780 nM. As to `CN(C[C@@H](CCN1CCC2(CC1)C[S+]([O-])c1ccccc12)c1ccc(Cl)c(Cl)c1)S(=O)(=O)c1ccc2[nH]ccc2c1` (stereo partly drawn), the IC50 is 70 nM. Still for that read-out and setting: then `CN(C[C@@H](CCN1CCC2(CC1)C[S+]([O-])c1ccccc12)c1ccc(Cl)c(Cl)c1)S(=O)(=O)C1CCCCC1` (stereo partly drawn), with 100 nM. Take `CN(C[C@@H](CCN1CCC2(CC1)C[S+]([O-])c1ccccc12)c1ccc(Cl)c(Cl)c1)S(=O)(=O)c1ccc(-c2ccccc2)cc1` (stereo partly drawn): the 50% inhibitory concentration (IC50) stood at 40 nM. On the same count and under the same terms, under `CN(C[C@@H](CCN1CCC2(CC1)C[S+]([O-])c1ccccc12)c1ccc(Cl)c(Cl)c1)S(=O)(=O)c1cccc2ccccc12` (stereo partly drawn) stands 360 nM. Same read-out and setting: then `O=S(=O)(NC[C@@H](CCN1CCC2(CC1)CSc1ccccc12)c1ccc(Cl)c(Cl)c1)c1ccccc1`, with 1600 nM; and `CCN(C[C@@H](CCN1CCC2(CC1)CS(=O)(=O)c1ccccc12)c1ccc(Cl)c(Cl)c1)S(=O)(=O)c1ccccc1`, with 160 nM. Compound `CN(C[C@@H](CCN1CCC2(CC1)CS(=O)(=O)c1ccccc12)c1ccc(Cl)c(Cl)c1)S(=O)(=O)c1cccs1` registered a half-inhibitory concentration (IC50) of 120 nM. Same read-out and setting: then `CN(C[C@@H](CCN1CCC2(CC1)CSc1ccccc12)c1ccc(Cl)c(Cl)c1)S(=O)(=O)c1ccccc1`, with 1000 nM. Same read-out and setting: under `CN(C[C@@H](CCN1CCC2(CC1)C[S+]([O-])c1ccccc12)c1ccc(Cl)c(Cl)c1)S(=O)(=O)Cc1ccccc1` (stereo partly drawn) stands 590 nM; under `O=S(=O)(NC[C@@H](CCN1CCC2(CC1)C[S+]([O-])c1ccccc12)c1ccc(Cl)c(Cl)c1)c1ccccc1` (stereo partly drawn), 230 nM; under `CN(C[C@@H](CCN1CCC2(CC1)C[S+]([O-])c1ccccc12)c1ccc(Cl)c(Cl)c1)S(=O)(=O)c1ccc2ccccc2c1` (stereo partly drawn), 60 nM.

The compound `CN(C[C@@H](CCN1CCC2(CC1)C[S+]([O-])c1ccccc12)c1ccc(Cl)c(Cl)c1)S(=O)(=O)c1ccccc1Cl` (stereo partly drawn) displayed an IC50 of 80 nM. Same read-out and setting: under `CCCCCCCCS(=O)(=O)N(C)C[C@@H](CCN1CCC2(CC1)C[S+]([O-])c1ccccc12)c1ccc(Cl)c(Cl)c1` (stereo partly drawn) stands 1400 nM; under `COc1ccc(S(=O)(=O)N(C)C[C@@H](CCN2CCC3(CC2)C[S+]([O-])c2ccccc23)c2ccc(Cl)c(Cl)c2)cc1` (stereo partly drawn), 40 nM.

`CN(C[C@@H](CCN1CCC2(CC1)C[S+]([O-])c1ccccc12)c1ccc(Cl)c(Cl)c1)C(=O)Cc1ccccc1` (stereo partly drawn): the concentration for half-maximal inhibition (IC50) is 640 nM.

With `CN(C[C@@H](CCN1CCC2(CC1)CS(=O)(=O)c1ccccc12)c1ccc(Cl)c(Cl)c1)S(=O)(=O)c1ccccc1`, the IC50 was found to be 100 nM. The same measure, in the same setting: then `CN(C[C@@H](CCN1CCC2(CC1)CS(=O)(=O)c1ccccc12)c1ccc(Cl)c(Cl)c1)S(=O)(=O)c1ccc([N+](=O)[O-])cc1`, with 60 nM. The same measure, in the same setting: under `CN(C[C@@H](CCN1CCC2(CC1)C[S+]([O-])c1ccccc12)c1ccc(Cl)c(Cl)c1)S(=O)(=O)c1cccc(Cl)c1` (stereo partly drawn) stands 70 nM; under `CN(C[C@@H](CCN1CCC2(CC1)C[S+]([O-])c1ccccc12)c1ccc(Cl)c(Cl)c1)S(C)(=O)=O` (stereo partly drawn), 850 nM; under `CCN(C[C@@H](CCN1CCC2(CC1)C[S+]([O-])c1ccccc12)c1ccc(Cl)c(Cl)c1)S(=O)(=O)c1ccccc1` (stereo partly drawn), 130 nM. As to `CN(C[C@@H](CCN1CCC2(CC1)C[S+]([O-])c1ccccc12)c1ccc(Cl)c(Cl)c1)S(=O)(=O)c1cnc2ccccc2c1` (stereo partly drawn), the IC50 was determined as 120 nM. The same measure, in the same setting: under `CN(C[C@@H](CCN1CCC2(CC1)C[S+]([O-])c1ccccc12)c1ccc(Cl)c(Cl)c1)S(=O)(=O)C1CCCC1` (stereo partly drawn) stands 100 nM; under `CN(C[C@@H](CCN1CCC2(CC1)CS(=O)(=O)c1ccccc12)c1ccc(Cl)c(Cl)c1)S(=O)(=O)c1cccc([N+](=O)[O-])c1`, 150 nM; under `CCN(C[C@@H](CCN1CCC2(CC1)CSc1ccccc12)c1ccc(Cl)c(Cl)c1)S(=O)(=O)c1ccccc1`, 10000 nM.

Compound `CN(C[C@@H](CCN1CCC2(CC1)C[S+]([O-])c1ccccc12)c1ccc(Cl)c(Cl)c1)S(=O)(=O)c1cn(C)cn1` (stereo partly drawn) registered an IC50 of 340 nM. Turning to `CN(Cc1ccccc1)C[C@@H](CCN1CCC2(CC1)CS(=O)(=O)c1ccccc12)c1ccc(Cl)c(Cl)c1`, the IC50 came out at 1000 nM. Consider `CN(C[C@@H](CCN1CCC2(CC1)C[S+]([O-])c1ccccc12)c1ccc(Cl)c(Cl)c1)S(=O)(=O)c1cccc2cccnc12` (stereo partly drawn), for which the IC50 came out at 90 nM.

Regarding `CN(C)S(=O)(=O)N(C)C[C@@H](CCN1CCC2(CC1)C[S+]([O-])c1ccccc12)c1ccc(Cl)c(Cl)c1` (stereo partly drawn), the IC50 was found to be 340 nM. The same measure, in the same setting: under `CN(C[C@@H](CCN1CCC2(CC1)C[S+]([O-])c1ccccc12)c1ccc(Cl)c(Cl)c1)S(=O)(=O)c1ccccc1` (stereo partly drawn) stands 35 nM.

`CN(C[C@@H](CCN1CCC2(CC1)C[S+]([O-])c1ccccc12)c1ccc(Cl)c(Cl)c1)S(=O)(=O)c1cccnc1` (stereo partly drawn) displayed an IC50 of 100 nM. The same measure, in the same setting: then `CN(C[C@@H](CCN1CCC2(CC1)C[S+]([O-])c1ccccc12)c1ccc(Cl)c(Cl)c1)S(=O)(=O)c1cccs1` (stereo partly drawn), with 60 nM. Still for that read-out and setting: under `CN(C[C@@H](CCN1CCC2(CC1)C[S+]([O-])c1ccccc12)c1ccc(Cl)c(Cl)c1)S(=O)(=O)c1ccc(Cl)cc1` (stereo partly drawn) stands 40 nM.

The target in the next assay is T1, C-C chemokine receptor type 5. Description: (§1) Binding affinity towards human CCR5 receptor in Chinese hamster ovary (CHO) cells using [125I]-MIP-1 alpha as radioligand at a concentration of 4000 nM. The assay is classed as cell-based.
Target sequence in this assay (P51681 whole entry): as above
Regarding `CN(C[C@@H](CCN1CCC2(CC1)C[S+]([O-])c1ccccc12)c1ccc(Cl)c(Cl)c1)S(=O)(=O)c1ccsc1` (stereo partly drawn), the half-maximal inhibitory concentration (IC50) is over 4000 nM.

The target is the same in the next assay. The assay is described as follows: Binding affinity towards human CCR5 receptor in Chinese hamster ovary (CHO) cells using [125I]-MIP-1 alpha as radioligand at a concentration of 1000 nM. The assay is classed as cell-based.
Target sequence in this assay (P51681 whole entry, looked up): as the sequence (P51681 whole entry) above
As to `CN(C[C@@H](CCN1CCC2(CC1)C[S+]([O-])c1ccccc12)c1ccc(Cl)c(Cl)c1)C(=O)OC(C)(C)C` (stereo partly drawn), the inhibition was found to be 35%. Consider `CN(Cc1ccccc1)C[C@@H](CCN1CCC2(CC1)C[S+]([O-])c1ccccc12)c1ccc(Cl)c(Cl)c1` (stereo partly drawn), for which the inhibition was determined as 40%.

For the next assay the target is unchanged. The assay is described as follows: Binding affinity towards human CCR5 receptor in Chinese hamster ovary (CHO) cells using [125I]-MIP-1 alpha as radioligand at a concentration of 10000 nM. The assay is classed as cell-based.
Target sequence in this assay (P51681 whole entry, looked up): as the sequence (P51681 whole entry) above
As for `CN(C[C@@H](CCN1CCC2(CC1)C[S+]([O-])c1ccccc12)c1ccc(Cl)c(Cl)c1)C(=O)N(C)c1ccccc1` (stereo partly drawn), the inhibition is 73%. `CN(C[C@@H](CCN1CCC2(CC1)C[S+]([O-])c1ccccc12)c1ccc(Cl)c(Cl)c1)C(=O)Nc1ccccc1` (stereo partly drawn) gave an inhibition of 69%.

The next assay shares this target. The assay is described as §1. The assay is classed as cell-based.
Target sequence in this assay (P51681 whole entry, looked up): as the sequence (P51681 whole entry) above
`CN(C[C@@H](CCN1CCC2(CC1)C[S+]([O-])c1ccccc12)c1ccc(Cl)c(Cl)c1)C(=O)c1ccccc1` (stereo partly drawn) displayed an inhibition of 22%. The compound `CN(C[C@@H](CCN1CCC2(CC1)CS(=O)(=O)c1ccccc12)c1ccc(Cl)c(Cl)c1)C(=O)c1ccccc1` had an inhibition of 2%. `CN(C[C@@H](CCN1CCC2(CC1)CSc1ccccc12)c1ccc(Cl)c(Cl)c1)C(=O)c1ccccc1` had an inhibition of 0%.

For `CNC[C@@H](CCN1CCC2(CC1)C[S+]([O-])c1ccccc12)c1ccc(Cl)c(Cl)c1` (stereo partly drawn), the inhibition stood at 0%. Same read-out and setting: under `CN(C[C@@H](CCN1CCC2(CC1)C[S+]([O-])c1ccccc12)c1ccc(Cl)c(Cl)c1)S(=O)(=O)c1ccsc1` (stereo partly drawn) stands 20%.
